# Data reported in patent US7517884B2 (Kalypsys Inc., priority 1998, dated 2009).
# Legend:
# Format in all cases: cell-based, murine and human
# Settings in all cases: GAL4-PPAR LBD chimera
# PPAR-delta = target: T1, PPAR-delta (UniProt Q03181); assay: PPAR-delta transactivation assay (GAL4 chimera, luciferase reporter) in CV-1 cells
# T1 sequence (Q03181 1-441): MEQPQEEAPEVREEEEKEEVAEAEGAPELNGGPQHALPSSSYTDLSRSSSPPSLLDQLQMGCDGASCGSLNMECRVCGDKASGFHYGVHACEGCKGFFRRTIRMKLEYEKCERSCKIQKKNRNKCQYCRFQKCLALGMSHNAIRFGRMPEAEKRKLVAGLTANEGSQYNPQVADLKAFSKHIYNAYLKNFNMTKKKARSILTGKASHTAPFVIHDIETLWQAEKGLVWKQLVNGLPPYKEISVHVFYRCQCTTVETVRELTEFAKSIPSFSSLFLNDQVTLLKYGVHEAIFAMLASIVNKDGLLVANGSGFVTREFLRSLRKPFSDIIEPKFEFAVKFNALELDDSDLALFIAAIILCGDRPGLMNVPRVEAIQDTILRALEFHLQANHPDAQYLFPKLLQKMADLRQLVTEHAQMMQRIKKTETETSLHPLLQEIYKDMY
# Description: (§1) Compounds may be screened for functional potency in transient transfection assays in CV-1 cells for their ability to activate the PPAR subtypes (transactivation assay). A previously established chimeric receptor system was utilized to allow comparison of the relative transcriptional activity of the receptor subtypes on the same synthetic response element and to prevent endogenous receptor activation from complicating the interpretation of results. See, for example, Lehmann, J. M.; Moore, L. B.; Smith-Oliver, T. A; Wilkinson, W. O.; Willson, T. M.; Kliewer, S. A., An antidiabetic thiazolidinedione is a high affinity ligand for peroxisome proliferator-activated receptor […], J. Biol. Chem., 1995, 270, 12953-6. The ligand binding domains for murine and human PPAR-alpha, PPAR-gamma, and PPAR-delta are each fused to the yeast transcription factor GAL4 DNA binding domain. CV-1 cells were transiently transfected with expression vectors for the respective PPAR chimera along with a reporter construct containing four or five copies of the GAL4 DNA binding site driving expression of luciferase. After 8-16 h, the cells are replated into multi-well assay plates and the media is exchanged to phenol-red free DME medium supplemented with 5% delipidated calf serum. 4 hours after replating, cells were treated with either compounds or 1% DMSO for 20-24 hours. Luciferase activity was then assayed with Britelite (Perkin Elmer) following the manufacturer's protocol and measured with either the Perkin Elmer Viewlux or Molecular Devices Acquest (see, for example, Kliewer, S. A., et. al. Cell 1995, 83, 813-819). Rosiglitazone is used as a positive control in the PPARγ assay. Wy-14643 and GW7647 are used as positive controls in the PPARα assay. GW501516 is used as the positive control in the PPARδ assay.
# (§2) Compounds of Examples 1-141 were assayed to measure their biological activity with respect to their EC50 values for modulating PPAR-alpha, PPAR-gamma, and PPAR-delta as set forth in Table 1.
# PPAR-alpha = target: T2, PPAR-alpha (UniProt Q07869); assay: PPAR-alpha transactivation assay (GAL4 chimera, luciferase reporter) in CV-1 cells
# T2 sequence (Q07869 1-468): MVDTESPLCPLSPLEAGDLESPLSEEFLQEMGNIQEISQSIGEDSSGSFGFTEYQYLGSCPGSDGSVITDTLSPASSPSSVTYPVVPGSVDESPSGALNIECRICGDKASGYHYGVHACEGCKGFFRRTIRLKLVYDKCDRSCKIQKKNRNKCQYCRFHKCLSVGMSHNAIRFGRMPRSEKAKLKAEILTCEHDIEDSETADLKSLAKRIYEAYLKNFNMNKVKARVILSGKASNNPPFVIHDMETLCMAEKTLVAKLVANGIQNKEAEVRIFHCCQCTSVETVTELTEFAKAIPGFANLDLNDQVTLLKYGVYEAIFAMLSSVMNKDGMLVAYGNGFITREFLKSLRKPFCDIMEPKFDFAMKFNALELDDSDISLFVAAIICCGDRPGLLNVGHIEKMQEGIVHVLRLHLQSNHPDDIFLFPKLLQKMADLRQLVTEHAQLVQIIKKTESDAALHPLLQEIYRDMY
# Description: as §1, §2
# PPAR-gamma = target: T3, PPAR-gamma (UniProt P37231); assay: PPAR-gamma transactivation assay (GAL4 chimera, luciferase reporter) in CV-1 cells
# T3 sequence (P37231 1-505): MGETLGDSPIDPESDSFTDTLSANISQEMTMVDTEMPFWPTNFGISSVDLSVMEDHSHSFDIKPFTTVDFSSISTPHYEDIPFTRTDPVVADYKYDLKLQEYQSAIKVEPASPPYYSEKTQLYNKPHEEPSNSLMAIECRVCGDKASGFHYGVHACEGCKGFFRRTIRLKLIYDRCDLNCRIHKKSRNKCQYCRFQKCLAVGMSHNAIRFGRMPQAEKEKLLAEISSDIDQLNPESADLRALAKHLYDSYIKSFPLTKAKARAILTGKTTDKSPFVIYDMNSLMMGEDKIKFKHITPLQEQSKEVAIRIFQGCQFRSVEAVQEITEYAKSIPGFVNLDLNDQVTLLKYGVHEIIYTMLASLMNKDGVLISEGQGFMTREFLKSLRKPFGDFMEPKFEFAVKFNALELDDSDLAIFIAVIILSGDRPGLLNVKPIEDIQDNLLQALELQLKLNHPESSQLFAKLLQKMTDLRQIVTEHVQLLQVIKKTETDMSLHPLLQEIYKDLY
# Description: as §1, §2
EC50 (PPAR-delta) [µM],EC50 (PPAR-alpha) [µM],EC50 (PPAR-gamma) [µM],Structure (SMILES)
< 5,> 100,> 100,"C[C@@H]1CN(c2ccc(C(F)(F)F)c(Cl)c2)C[C@H](C)N1S(=O)(=O)c1cccc2c1CC(C(=O)O)C2 (relative stereo) [Example 82, 4-[4-(3-chloro-4-trifluoromethyl-phenyl)-cis-2,6-dimethyl-piperazine-1-sulfonyl]-indan-2-carboxylic acid]"
< 5,5 to 100,< 5,"O=C(O)C1Cc2cccc(S(=O)(=O)N3CCN(c4ccc(C(F)(F)F)cn4)CC3)c2C1 (single isomer, unassigned) [Example 11]"
< 5,5 to 100,5 to 100,"C[C@@H]1CN(c2ccc(C(F)(F)F)cn2)C[C@H](C)N1S(=O)(=O)c1ccc2c(c1)C(C(=O)O)CC2 (single isomer, unassigned) [Example 75, 6-[cis-2,6-dimethyl-4-(5-trifluoromethylpyridin-2-yl)-piperazine-1-sulfonyl]-indan-1-carboxylic acid]"
< 5,> 100,> 100,"C[C@@H]1CN(c2ccc(C(F)(F)F)cn2)C[C@H](C)N1S(=O)(=O)c1ccc2c(c1)C(C(=O)O)CC2 (single isomer, unassigned) [Example 76, 6-[cis-2,6-dimethyl-4-(5-trifluoromethylpyridin-2-yl)-piperazine-1-sulfonyl]-indan-1-carboxylic acid]"
< 5,> 100,> 100,"C[C@@H]1CN(c2ccc(OC(F)(F)F)cc2)C[C@H](C)N1S(=O)(=O)c1cccc2c1CC(C(=O)O)C2 (single isomer, unassigned) [Example 80]"
< 5,> 100,5 to 100,"CC1CN(S(=O)(=O)c2cccc3c2CC(C(=O)O)C3)C(C)CN1c1ccc(C(F)(F)F)cn1 (single isomer, unassigned) [Example 118, 4-[2S,5S-dimethyl-4-(5-trifluoromethyl-pyridin-2-yl)-piperazine-1-sulfonyl]-indan-2-carboxylic acid]"
5 to 100,> 100,> 100,"CC1CN(S(=O)(=O)c2cccc3c2CC(C(=O)O)C3)C(C)CN1c1ccc(C(F)(F)F)cn1 (single isomer, unassigned) [Example 119, 4-[2S,5S-dimethyl-4-(5-trifluoromethyl-pyridin-2-yl)-piperazine-1-sulfonyl]-indan-2-carboxylic acid]"
< 5,> 100,> 100,"C[C@@H]1CN(c2ccc(Cl)cc2)C[C@H](C)N1S(=O)(=O)c1cccc2c1CC(C(=O)O)C2 (single isomer, unassigned) [Example 127, 4-(4-(4-chlorophenyl)-cis-2,6-dimethylpiperazin-1-ylsulfonyl)-2,3-dihydro-1H-indene-2-carboxylic acid]"
5 to 100,> 100,> 100,"C[C@@H]1CN(c2ccc(Cl)cc2)C[C@H](C)N1S(=O)(=O)c1cccc2c1CC(C(=O)O)C2 (single isomer, unassigned) [Example 128, 4-(4-(4-chlorophenyl)-cis-2,6-dimethylpiperazin-1-ylsulfonyl)-2,3-dihydro-1H-indene-2-carboxylic acid]"
< 5,> 100,> 100,"C[C@@H]1CN(c2cccc(OC(F)(F)F)c2)C[C@H](C)N1S(=O)(=O)c1cccc2c1CC(C(=O)O)C2 (single isomer, unassigned) [Example 129, 4-[cis-2,6-dimethyl-4-(3-trifluoromethoxyphenyl)piperazin-1-ylsulfonyl]-2,3-dihydro-1H-indene-2-carboxylic acid]"
5 to 100,> 100,> 100,"C[C@@H]1CN(c2cccc(OC(F)(F)F)c2)C[C@H](C)N1S(=O)(=O)c1cccc2c1CC(C(=O)O)C2 (single isomer, unassigned) [Example 130, 4-[cis-2,6-dimethyl-4-(3-trifluoromethoxyphenyl)piperazin-1-ylsulfonyl]-2,3-dihydro-1H-indene-2-carboxylic acid]"
< 5,> 100,> 100,"C[C@@H]1CN(c2ccc(C(F)(F)F)c(Cl)c2)C[C@H](C)N1S(=O)(=O)c1cccc2c1CC(C(=O)O)C2 (single isomer, unassigned) [Example 138, 4-(4-(3-chloro-4-(trifluoromethyl)phenyl)-cis-2,6-dimethylpiperazin-1-ylsulfonyl)-2,3-dihydro-1H-indene-2-carboxylic acid]"
5 to 100,> 100,> 100,"C[C@@H]1CN(c2ccc(C(F)(F)F)c(Cl)c2)C[C@H](C)N1S(=O)(=O)c1cccc2c1CC(C(=O)O)C2 (single isomer, unassigned) [Example 139, 4-(4-(3-chloro-4-(trifluoromethyl)phenyl)-cis-2,6-dimethylpiperazin-1-ylsulfonyl)-2,3-dihydro-1H-indene-2-carboxylic acid]"
< 5,> 100,5 to 100,"C[C@@H]1CN(Cc2ccc(OC(F)(F)F)cc2)C[C@H](C)N1S(=O)(=O)c1cccc2c1CC(C(=O)O)C2 (single isomer, unassigned) [Example 140]"
5 to 100,> 100,> 100,"C[C@@H]1CN(Cc2ccc(OC(F)(F)F)cc2)C[C@H](C)N1S(=O)(=O)c1cccc2c1CC(C(=O)O)C2 (single isomer, unassigned) [Example 141]"
< 5,< 5,< 5,"C[C@@H]1[C@H](C)N(c2ccc(C(F)(F)F)cn2)CCN1S(=O)(=O)c1ccc2c(c1)C(C(=O)O)CC2 (stereo in doubt) [Example 86, 6-[2,3-Dimethyl-4-(5-trifluoromethyl-pyridin-2-yl)-piperazine-1-sulfonyl]-indan-1-carboxylic acid]"
< 5,5 to 100,< 5,"C[C@@H]1[C@H](C)N(c2ccc(C(F)(F)F)cn2)CCN1S(=O)(=O)c1ccc2scc(CC(=O)O)c2c1 (stereo in doubt) [Example 87, {5-[2,3-Dimethyl-4-(5-trifluoromethyl-pyridin-2-yl)-piperazine-1-sulfonyl]-benzo[b]thiophen-3-yl}-acetic acid]"
5 to 100,5 to 100,5 to 100,"O=C(O)CC1Cc2ccc(S(=O)(=O)N3CCN(c4ccc(C(F)(F)F)cc4)CC3)cc2C1 (stereo not drawn) [Example 1, {5-[4-(4-trifluoromethylphenyl)-piperazine-1-sulfonyl]-indan-2-yl}-acetic acid]"
